Assay results taken from patent publication US20220339260A1, “METHOD FOR PRODUCING INSULIN-PRODUCING CELL USING DIHYDROINDOLIZINONE DERIVATIVES” (TOKYO INSTITUTE OF TECHNOLOGY, priority 2019, published 2022).

Columns and labels:
Toe human iPS cells = experiment: Differentiation of Toe human iPS cells into iPS-β cells, monolayer culture, protocol #1; assay type: cell-based; details: treatment from later stage of stage 3 to initial stage of stage 5
Method: The Toe human iPS cells were seeded in CellBIND 6-well (CORNING, CLS3335) cell culture plate coated with synthemax II, and differentiated into primitive gut tube cells by the previously described method (Shahjalal et al., 2014). The cells were dissociated with TrypLE Select (Thermo Fisher, 12563011) and cryopreserved in BanBanker (Nippon genetics) at a density of 1.0 to 2.0×10^7 cells/mL until use. One day before compound addition, the cells were thawed in a medium for stage 3 (DMEM (high glucose), 0.25 μM SANT1 (Wako, 197-16351), 0.1 μM LDN193189 (Stemgent, 04-0074), 10 μM SB431542, 2 μM retinoic acid, 1% B27-free serum supplement (Life Technologies, 17504044), and seeded at 150,000 cells per well in CellBIND 96-well (Corning, 3340) cell culture plated coated with synthemax II. The cells were cultured for 1 day in a medium for stage 3 containing a test compound or a negative control (0.01% DMSO). The cells were further cultured for 2 days and 1 day in media for stages 4 and 5, respectively, containing the test compound or the negative control. On the next day, the cells were fixed in 4% paraformaldehyde for analysis using a high-content imager.

[1] = system: human iPS cell Toe strain; experiment: Effect to promote differentiation from human iPS cells into insulin-producing cells (insulin-positive cell rate, Reference Example 1); assay type: cell-based; details: 10 μM; average of 30 cases; untreated control 4.9%

O=C1CCC(C(=O)Nc2ncc(-c3ccccc3)s2)n2cccc21 (centres unmarked) [Synthesis Example 1, 8-Oxo-N-(5-phenylthiazol-2-yl)-6,7-dihydro-5H-indolizine-5-carboxamide] was tested, and the “differentiation into iPS-β cells (INS+ cells)” value (Toe human iPS cells) was “enhanced differentiation into iPS-β cells” and the “average insulin-positive cell rate” value [1] was 13%.
